Assays:
[1] = tested on: H2228 (EML4-ALK fusion gene); conditions: method not stated; cited from earlier work
[2] = tested on: H1975 (EGFR^L858R+T790M) cells; assay: Apoptosis by Annexin V/PI staining with flow cytometry; assay type: cell-based, human
Procedure: Annexin V/PI staining is used to detect early and late stages of apoptosis. According to the manufacturer's protocol (BD Pharmingen), 5×10^5 cells of the treated and control groups were harvested, washed, and double-stained with Annexin V/PI for 15 min at room temperature in dark. Then apoptotic cells were quantitatively counted by a flow cytometer (BD FACSAria III). Early stage of apoptotic cells were stained with Annexin V-positive and PI-negative, while the late stage of apoptotic cells were stained with Annexin V-positive and PI-positive.
Example 6 further studies if the sanguinarine-induced apoptosis in H1975 (EGFR^L858R+T790M) is in caspases-dependent manner H1975 cells were treated with 1.25 μM sanguinarine and 1.25 μM sanguinarine together with 50 μM pan-caspase inhibitor for 24 hrs.

JNK, p38 = assay: Western blot of phosphorylation of JNK and p38; assay type: cell-based, human; conditions: 5 μM NAC and 1.25 μM sanguinarine
Procedure: (§1) Cells were lysed in RIPA lysis buffer with protease and phosphatase inhibitors added for total whole cell protein extraction. The concentration of the total protein extract was determined by Bio-Rad DCTM protein assay kit (Bio-Rad). Then samples were loaded and separated onto a 10% SDS-PAGE gel and then the separated proteins were transferred to a Nitrocellulose (NC) membrane. Membranes were blocked with 5% milk without fat in TBST for 1 hour at room temperature. Primary antibodies (1:1000 dilutions for Cell Signaling antibodies; 1:500 dilutions for Santa Cruz antibodies) were added and incubated overnight at 4° C. On the other day, membrane was washed by TBST for three times (5 mins/wash), while secondary fluorescent antibody (1:10000 dilutions) was added to membrane and incubated at room temperature for 1 hr. Actin was used as loading control and for normalization. The signal intensity of the membranes was detected by Odessy (LI-COR).
ROS intensity was increased with the increase of sanguinarine treatment time. Sanguinarine-induced apoptosis in H1975 cells, in which the cells were pre-treated with 5 μM NAC and a ROS generation inhibitor, was also studied. […] Also, P-EGFR 1045 as shown in FIG. 6 is a tyrosine(Y) phosphorylation site of EGFR at amino acid position 1045 (Y1045) and phosphorylation of this site will lead to activation of EGFR degradation after cbl docking to this site

EGFR = assay: Western blot analysis of the protein level of EGFR; assay type: cell-based, human; conditions: 5 μM NAC and 1.25 μM sanguinarine
Procedure: as §1
In Example 3, the protein level of EGFR after sanguinarine treatment with difference dosage and duration was analyzed.

COc1cc2ncnc(Nc3ccc(F)c(Cl)c3)c2cc1OCCCN1CCOCC1 [Gefitinib]
Gefitinib Sensitivity [1]: Resistant

CC(=O)N[C@@H](CS)C(=O)O [NAC]
apoptosis induced by sanguinarine after NAC pre-treatment ([2]; H1975, pre-treated with 5 μM NAC, sanguinarine): completely blocked | phosphorylation of JNK, p38 induced by sanguinarine (JNK, p38): block | EGFR degradation induced by sanguinarine (EGFR): block

C[n+]1cc2c3c(ccc2c2ccc4cc5c(cc4c21)OCO5)OCO3 [sanguinarine]
more cell debris than control ([2]; H1975, 1.25 μM, 24 hrs): 20% | increase in early stage of apoptosis compared with the control group ([2]; H1975, 1.25 μM, 24 hrs, early stage (Q3)): 7.2 fold

From patent US20140371254A1, “NOVEL TREATMENT OF GEFITINIB-RESISTANT NON-SMALL-CELL LUNG CANCER” (Macau University of Science and Technology, priority 2013, published 2014)
